Measured values taken from PubChem BioAssay AID1117348 (Cheminformatics & Chemogenomics Research Group (CCRG), …, 2015).
Active and inactive are the calls of the source. How the calls were made is not given here.

What follows are compounds tested on HeLa cell cycle, increased S-phase population (assay: HeLa S-phase population increase, dose response, cell-based, IC50 (AID 1117348)).
In the case of `CN(Cc1cnc2nc(N)nc(N)c2n1)c1ccc(C(=O)N[C@@H](CCC(=O)O)C(=O)O)cc1`, the IC50 is reported as > 10 µM (inactive). With `CCCNCC(O)COc1ccccc1C(=O)CCc1ccccc1` (centres undefined) the IC50 was > 10 µM (inactive). With `O=c1[nH]c(=O)n([C@H]2C[C@H](O)[C@@H](CO)O2)cc1I` the IC50 was > 10 µM (inactive). With `CC(C)c1c(C(=O)Nc2ccccc2)c(-c2ccccc2)c(-c2ccc(F)cc2)n1CC[C@@H](O)C[C@@H](O)CC(=O)O` the IC50 was > 10 µM (inactive). In the case of `CCC(C)(C)C(=O)O[C@H]1C[C@@H](C)C=C2C=C[C@H](C)[C@H](CC[C@@H]3C[C@@H](O)CC(=O)O3)[C@H]21`, the IC50 is reported as > 10 µM (inactive). With `CCC(COC(=O)c1cc(OC)c(OC)c(OC)c1)(c1ccccc1)N(C)C` (centres undefined) the IC50 was > 10 µM (inactive). `CCCCc1ccc2nc(NC(=O)OC)[nH]c2c1` was tested, and the IC50 was > 10 µM (inactive). Compound `CC(=O)Nc1ccn(C2COC(COC(=O)c3ccccc3)O2)c(=O)n1` (centres undefined) has an IC50 of 0.312 µM. For `CCCCCCCCCCCCCCCC[n+]1ccccc1`, the IC50 was > 10 µM (inactive). With `CCCSc1ccc2nc(NC(=O)OC)[nH]c2c1` the IC50 was > 10 µM (inactive). For `O=c1[nH]c(=O)n([C@H]2C[C@H](O)[C@@H](CO)O2)cc1Br`, the IC50 was > 10 µM (inactive). For `CCC(=O)c1ccc(O)cc1`, the IC50 was > 10 µM (inactive). For `Cc1ccc2c(c1)c1c3n2CCNC3CCC1` (centres undefined), the IC50 was > 10 µM (inactive). In the case of `CCCCCCCCCCCC[N+](C)(C)Cc1ccccc1`, the IC50 is reported as > 10 µM (inactive). In the case of `Nc1nc(=O)n([C@@H]2O[C@H](CO)[C@@H](O)[C@@H]2F)cc1I`, the IC50 is reported as > 10 µM (inactive). In the case of `COc1cccc2c1C(=O)c1c(O)c3c(c(O)c1C2=O)C[C@@](O)(C(C)=O)C[C@@H]3O[C@H]1C[C@H](N)[C@H](O)[C@H](C)O1`, the IC50 is reported as 9.6 µM (inactive). With `Clc1ccc(Nc2nnc(Cc3ccncc3)c3ccccc23)cc1` the IC50 was > 10 µM (inactive). In the case of `CC(=O)[C@]1(O)Cc2c(O)c3c(c(O)c2[C@@H](O[C@H]2C[C@H](N)[C@H](O)[C@H](C)O2)C1)C(=O)c1ccccc1C3=O`, the IC50 is reported as > 10 µM (inactive). With `C[C@@H](O[C@H]1OCCN(Cc2n[nH]c(=O)[nH]2)[C@H]1c1ccc(F)cc1)c1cc(C(F)(F)F)cc(C(F)(F)F)c1` the IC50 was > 10 µM (inactive). For `CCOc1ccc2nc3cc(N)ccc3c(N)c2c1`, the IC50 was > 10 µM (inactive). In the case of `N[C@@H](Cc1ccc(N(CCCl)CCCl)cc1)C(=O)O`, the IC50 is reported as > 10 µM (inactive). `CC[n+]1c(-c2ccccc2)c2cc(N)ccc2c2ccc(N)cc21` was tested, and the IC50 was > 10 µM (inactive). With `O=C(NOCC1CC1)c1ccc(F)c(F)c1Nc1ccc(I)cc1Cl` the IC50 was > 10 µM (inactive). For `Cc1cc(O)c2ccccc2c1O`, the IC50 was > 10 µM (inactive). `CC[C@]1(O)C[C@@H]2CN(CCc3c([nH]c4ccccc34)[C@@](C(=O)OC)(c3cc4c(cc3OC)N(C)[C@H]3[C@@](O)(C(=O)OC)[C@H](OC(C)=O)[C@]5(CC)C=CCN6CC[C@]43[C@@H]65)C2)C1` was tested, and the IC50 was > 10 µM (inactive). In the case of `O=C1c2c(O)cccc2Cc2cccc(O)c21`, the IC50 is reported as > 10 µM (inactive). For `O=C(Nc1ccc(Br)cc1)c1cc(Br)cc(Br)c1O`, the IC50 was > 10 µM (inactive). With `Cc1ccc(Nc2nccc(N(C)c3ccc4c(C)n(C)nc4c3)n2)cc1S(N)(=O)=O` the IC50 was > 10 µM (inactive). In the case of `Cc1cc2c(C(C)C)c(O)c(O)c(C=O)c2c(O)c1-c1c(C)cc2c(C(C)C)c(O)c(O)c(C=O)c2c1O`, the IC50 is reported as > 10 µM (inactive). For `CO[C@@H]1[C@@H](OC)[C@H](C)[C@@](O)(CC(=O)O)O[C@H]1[C@H](C)[C@H]1O[C@@]2(CC[C@@](C)([C@H]3CC[C@@](C)([C@@H]4O[C@@H]([C@H]5O[C@](C)(O)[C@H](C)C[C@@H]5C)C[C@@H]4OC4C[C@H](OC)[C@@H](OC)[C@H](C)O4)O3)O2)C[C@H](O)[C@H]1C` (some centres undefined), the IC50 was > 10 µM (inactive). With `CC[C@H](C)C(=O)O[C@H]1C[C@@H](C)C=C2C=C[C@H](C)[C@H](CC[C@@H]3C[C@@H](O)CC(=O)O3)[C@H]21` the IC50 was > 10 µM (inactive). `O=C(CCl)c1ccc(Cl)cc1Cl` was tested, and the IC50 was > 10 µM (inactive). `COc1c(C)c2c(c(O)c1C/C=C(\C)CCC(=O)OCCN1CCOCC1)C(=O)OC2` gave an IC50 of 0.0147 µM. Work on `CCN(CC)CCCC(C)Nc1c2ccc(Cl)cc2nc2ccc(OC)cc12` (centres undefined) yielded an IC50 of 2.26 µM. With `COc1cccc2c1C(=O)c1c(O)c3c(c(O)c1C2=O)C[C@@](O)(C(=O)CO)C[C@@H]3O[C@H]1C[C@H](N)[C@H](O[C@@H]2CCCCO2)[C@H](C)O1` the IC50 was 1.75 µM. In the case of `CCCCC1C(=O)N(c2ccccc2)N(c2ccc(O)cc2)C1=O` (centres undefined), the IC50 is reported as > 10 µM (inactive). With `O=C(O)CCCc1ccc(N(CCCl)CCCl)cc1` the IC50 was 2.19 µM. In the case of `O=C(CCBr)N1CCN(C(=O)CCBr)CC1`, the IC50 is reported as > 10 µM (inactive). In the case of `CC(=O)Oc1ccc(C2(c3ccc(OC(C)=O)cc3)Oc3ccccc3NC2=O)cc1`, the IC50 is reported as > 10 µM (inactive). With `CN(C)CCOC(c1ccccc1)c1ccc(Br)cc1` (centres undefined) the IC50 was > 10 µM (inactive). With `O=C1[C@H]2CCCC[C@H]2C(=O)N1CCCCN1CCN(c2nsc3ccccc23)CC1` the IC50 was > 10 µM (inactive). For `Cc1ccc(S(=O)(=O)NC(=O)NN2CC3CCCC3C2)cc1` (centres undefined), the IC50 was > 10 µM (inactive). With `Nc1nc(Cl)nc2c1ncn2[C@@H]1O[C@H](CO)[C@@H](O)[C@@H]1F` the IC50 was > 10 µM (inactive). With `O=[N+]([O-])c1ccc(Oc2ccc(N=C=S)cc2)cc1` the IC50 was > 10 µM (inactive). `Oc1ccc([C@H]2CNCc3c2ccc(O)c3O)cc1O` was tested, and the IC50 was > 10 µM (inactive). `O=C(Nc1ccc([N+](=O)[O-])cc1Cl)c1cc(Cl)ccc1O` was tested, and the IC50 was > 10 µM (inactive). With `O=c1[nH]c(=O)n([C@H]2C[C@H](O)[C@@H](CO)O2)cc1F` the IC50 was 0.169 µM. For `O=C1C(I)=CC(=C(c2cc(I)c(O)c(I)c2)c2ccccc2C(=O)O)C=C1I`, the IC50 was > 10 µM (inactive). For `CCc1oc2ccccc2c1C(=O)c1cc(Br)c(O)c(Br)c1`, the IC50 was > 10 µM (inactive). With `CC(C)=CCC/C(C)=C/CC/C(C)=C/C(=O)OCC(=O)[C@@]1(O)CC[C@H]2[C@@H]3CCC4=CC(=O)C=C[C@]4(C)[C@H]3[C@@H](O)C[C@@]21C` the IC50 was > 10 µM (inactive). `CC(C)=CCOc1ccc(/C=C/C(=O)c2ccc(OCC=C(C)C)cc2OCC(=O)O)cc1` was tested, and the IC50 was > 10 µM (inactive). In the case of `CC(=O)O[C@@]12CO[C@@H]1C[C@H](O)[C@@]1(C)C(=O)[C@H](O)C3=C(C)[C@@H](OC(=O)[C@H](O)[C@@H](NC(=O)OC(C)(C)C)c4ccccc4)C[C@@](O)([C@@H](OC(=O)c4ccccc4)[C@H]21)C3(C)C`, the IC50 is reported as > 10 µM (inactive). For `Cc1nc(N)nc(N)c1-c1ccc(Cl)c(Cl)c1`, the IC50 was > 10 µM (inactive). For `Cc1cc(CC(C)CC(C)(C)C)n(O)c(=O)c1` (centres undefined), the IC50 was > 10 µM (inactive). For `COc1cc2c(c(OC)c1OC)-c1ccc(OC)c(=O)cc1[C@@H](NC(C)=O)CC2`, the IC50 was 0.1 µM (inactive). With `CCc1oc2ccccc2c1C(=O)c1cc(I)c(O)c(I)c1` the IC50 was > 10 µM (inactive). In the case of `COc1cc(-c2ccc(=O)[nH]n2)ccc1OC(F)F`, the IC50 is reported as > 10 µM (inactive). With `COCc1c(C(C)C)nc(C(C)C)c(/C=C/[C@@H](O)C[C@@H](O)CC(=O)O)c1-c1ccc(F)cc1` the IC50 was > 10 µM (inactive). In the case of `CC(C)=CCNc1ncnc2c1ncn2[C@@H]1O[C@H](CO)[C@@H](O)[C@H]1O`, the IC50 is reported as > 10 µM (inactive). With `Cn1cnc([N+](=O)[O-])c1Sc1ncnc2nc[nH]c12` the IC50 was > 10 µM (inactive). In the case of `CCCCOC(=O)c1ccc(N)cc1`, the IC50 is reported as > 10 µM (inactive). With `COc1cc(NC(C)CCCN)c2ncccc2c1` (centres undefined) the IC50 was > 10 µM (inactive). With `CCN1/C(=C/C=C/c2sc3ccccc3[n+]2CC)Sc2ccccc21` the IC50 was > 10 µM (inactive). With `C[n+]1c2cc(N)ccc2cc2ccc(N)cc21` (tested in a mixture with another compound) the IC50 was 1.96 µM. `O=Cc1ccc(O)c(O)c1O` was tested, and the IC50 was > 10 µM (inactive). Compound `CC(C)(C)C(=O)OCOP(=O)(COCCn1cnc2c(N)ncnc21)OCOC(=O)C(C)(C)C` has an IC50 of 0.0608 µM. For `Cc1cc(=O)c2c(O)c3c(O)cc(=O)c4c3c3c(cc(O)c1c23)C(C)(C)C=4O`, the IC50 was > 10 µM (inactive). For `Cc1ccc(CCn2c3c(c4cc(Cl)ccc42)CN(C)CC3)cn1`, the IC50 was > 10 µM (inactive). With `COC(=O)[C@H]1[C@H]2C[C@@H]3c4[nH]c5cc(OC)ccc5c4CCN3C[C@H]2C[C@@H](OC(=O)/C=C/c2ccc(O)c(OC)c2)[C@@H]1OC` the IC50 was > 10 µM (inactive). `O[C@@H](CNC[C@H](O)[C@H]1CCc2cc(F)ccc2O1)[C@@H]1CCc2cc(F)ccc2O1` was tested, and the IC50 was > 10 µM (inactive). `C[C@@]12C(=O)OC(=O)[C@]1(C)C1CCC2O1` was tested, and the IC50 was > 10 µM (inactive). `O=C(c1cc(O)c(O)c(O)c1)c1ccc(O)c(O)c1O` was tested, and the IC50 was > 10 µM (inactive). For `Cc1cc(N)c2ccccc2[n+]1CCCCCCCCCC[n+]1c(C)cc(N)c2ccccc21`, the IC50 was > 10 µM (inactive). In the case of `O=C1c2c(O)ccc(O)c2C(=O)c2c(NCCNCCO)ccc(NCCNCCO)c21`, the IC50 is reported as > 10 µM (inactive). Compound `CO[C@@]12[C@H](COC(N)=O)C3=C(C(=O)C(C)=C(N)C3=O)N1C[C@@H]1N[C@@H]12` has an IC50 of 0.143 µM. In the case of `Oc1c(Cl)cc(Cl)cc1Sc1cc(Cl)cc(Cl)c1O`, the IC50 is reported as > 10 µM (inactive). `CCN(CC)CCNC(=O)c1c(C)[nH]c(/C=C2\C(=O)Nc3ccc(F)cc32)c1C` was tested, and the IC50 was > 10 µM (inactive). `CCCCCCCCCCCCNCCNCCNCC(=O)O` was tested, and the IC50 was > 10 µM (inactive). For `COc1cc([C@@H]2c3cc4c(cc3[C@H](O)[C@H]3COC(=O)[C@H]23)OCO4)cc(OC)c1OC`, the IC50 was > 10 µM (inactive). `C=CC(=O)Nc1cc2c(Nc3ccc(F)c(Cl)c3)ncnc2cc1OCCCN1CCOCC1` was tested, and the IC50 was > 10 µM (inactive). `CCc1nc(N)nc(N)c1-c1ccc(Cl)cc1` was tested, and the IC50 was > 10 µM (inactive). In the case of `Cc1ccccc1C(OCCN(C)C)c1ccccc1` (centres undefined), the IC50 is reported as > 10 µM (inactive). `COC(=O)Nc1nc2ccc(Sc3ccccc3)cc2[nH]1` was tested, and the IC50 was > 10 µM (inactive). For `C1CN(P2(N3CC3)=NP(N3CC3)(N3CC3)=NP(N3CC3)(N3CC3)=N2)CCO1` (centres undefined), the IC50 was > 10 µM (inactive). `CC(C)(C)C1CCC(CC2=C(O)c3ccccc3C(=O)C2=O)CC1` (centres undefined) was tested, and the IC50 was > 10 µM (inactive). For `Nc1nc(F)nc2c1ncn2[C@@H]1O[C@H](CO)[C@@H](O)[C@@H]1O`, the IC50 was > 10 µM (inactive). For `CCN(CC)CCOc1ccc(C(O)(Cc2ccc(Cl)cc2)c2ccc(C)cc2)cc1` (centres undefined), the IC50 was > 10 µM (inactive). `COC(=O)Nc1nc2ccc(C(=O)C3CC3)cc2[nH]1` was tested, and the IC50 was > 10 µM (inactive). `Nc1ccc2cc3ccc(N)cc3nc2c1` was tested, and the IC50 was 3.44 µM.
